# Laboratory results taken from patent US20040072139A1, “Photodynamic treatment and uv-b-irradiation of a thrombocyte suspension” (priority 2000, published 2004).
# Experiments:
# VSV = assay type: cell-based, vesicular stomatitis virus
# CSFV = assay type: cell-based, classical swine fever virus
# BVDV = assay type: cell-based, bovine viral diarrhoea virus
# SFV = assay type: cell-based, Semliki Forest virus
# HIV-1 = assay type: cell-based, human immunodeficiency virus, Type 1
# SHV-1 = assay type: cell-based, suid herpesvirus 1
# SV-40 = assay type: cell-based, simian virus-40
# T-lymphocytes = assay: Inactivation of T lymphocytes in PC, ConA-stimulated BRDU proliferation assay; assay type: cell-based; settings: for Absorption OD450 nm (BRDU incorporation rate): ConA activation, three days cultivation
# platelets [1] = assay: Collagen-induced aggregation of treated platelet suspensions
# platelets [2] = assay: Hypotonic shock reaction (HSR) of treated platelet suspensions
# [3] = Experiment 1, Day 1 after treatment, thionine/light + UV-B 2.4 J/cm^2
# [4] = Experiment 1, Day 1 after treatment, thionine/light alone
# [5] = Experiment 1, Day 3 after treatment, thionine/light + UV-B 2.4 J/cm^2
# [6] = Experiment 1, Day 3 after treatment, thionine/light alone
# [7] = Experiment 2, Day 1 after treatment, thionine/light + UV-B 2.4 J/cm^2
# [8] = Experiment 2, Day 1 after treatment, thionine/light alone
# [9] = Experiment 2, Day 3 after treatment, thionine/light + UV-B 2.4 J/cm^2
# [10] = Experiment 2, Day 3 after treatment, thionine/light alone
# [11] = Experiment 3, Day 1 after treatment, thionine/light + UV-B 2.4 J/cm^2
# [12] = Experiment 3, Day 1 after treatment, thionine/light alone
# [13] = Experiment 3, Day 3 after treatment, thionine/light + UV-B 2.4 J/cm^2
# [14] = Experiment 3, Day 3 after treatment, thionine/light alone
# [15] = combined treatment with thionine/light and UV-B compared with photodynamic treatment alone
compound,measurement,setting,value
"Cl.N=c1ccc2nc3ccc(N)cc3sc-2c1 [Thionine/light, Thionine]",Infectivity (in words),VSV,still not completely eliminated
same,Reduction of virus titre,VSV,4.4 log10TCID50
same,Inactivation of virus (in words),CSFV,completely inactivated
same,Reduction of virus titre,CSFV,≧5.5 log10TCID50
same,Inactivation of virus (in words),BVDV,completely inactivated
same,Reduction of virus titre,BVDV,≧4.9 log10TCID50
same,Inactivation of virus (in words),SFV,completely inactivated
same,Reduction of virus titre,SFV,≧5.2 log10TCID50
same,Reduction of virus titre,HIV-1,≧5.7 log10TCID50
same,Reduction of virus titre,SHV-1,≧3.6 log10TCID50
same,Infectivity (in words),SV-40,still not completely eliminated
same,Reduction of virus titre,SV-40,3.9 log10TCID50
same,UV-B irradiation time required for complete inactivation of the cells,"T-lymphocytes; PC additionally treated with thionine/light (2 μM, 30 min), at least 4 min with UV-B alone",approximately 3 min
same,Absorption OD450 nm (BRDU incorporation rate),"T-lymphocytes; Th/light (2 μM, 30 min) then UV-B 0.6 J/cm^2",1.020
same,Absorption OD450 nm (BRDU incorporation rate),"T-lymphocytes; Th/light (2 μM, 30 min) then UV-B 0.9 J/cm^2",0.387
same,Absorption OD450 nm (BRDU incorporation rate),"T-lymphocytes; Th/light (2 μM, 30 min) then UV-B 1.2 J/cm^2",0.240
same,Influence on the proliferation of the cells (in words),"T-lymphocytes; thionine/light alone (2 μM, 30 min)",no influence
same,collagen-induced aggregation,platelets [1]; [3],69.75%
same,collagen-induced aggregation,platelets [1]; [4],73.25%
same,collagen-induced aggregation,platelets [1]; [5],16.75%
same,collagen-induced aggregation,platelets [1]; [6],13.75%
same,collagen-induced aggregation,platelets [1]; [7],76.67%
same,collagen-induced aggregation,platelets [1]; [8],84.67%
same,collagen-induced aggregation,platelets [1]; [9],53.50%
same,collagen-induced aggregation,platelets [1]; [10],27.67%
same,collagen-induced aggregation,platelets [1]; [11],58.33%
same,collagen-induced aggregation,platelets [1]; [12],69.67%
same,collagen-induced aggregation,platelets [1]; [13],30.33%
same,collagen-induced aggregation,platelets [1]; [14],15.67%
same,Influence on collagen-induced aggregation (in words),platelets [1]; [15],neither the HSR (hypotonic shock reaction) nor the collagen-induced aggregation of platelet concentrates is substantially more strongly influenced
same,HSR,platelets [2]; [3],47.86%
same,HSR,platelets [2]; [4],65.49%
same,HSR,platelets [2]; [5],51.16%
same,HSR,platelets [2]; [6],49.16%
same,HSR,platelets [2]; [7],42.37%
same,HSR,platelets [2]; [8],56.24%
same,HSR,platelets [2]; [9],30.26%
same,HSR,platelets [2]; [10],52.61%
same,HSR,platelets [2]; [11],54.45%
same,HSR,platelets [2]; [12],69.30%
same,HSR,platelets [2]; [13],48.31%
same,HSR,platelets [2]; [14],55.49%
same,Influence on HSR (in words),platelets [2]; [15],neither the HSR (hypotonic shock reaction) nor the collagen-induced aggregation of platelet concentrates is substantially more strongly influenced
